Results published in paper PMC7935272 (PLoS Pathogens, 2021).
Where two headings read alike, the source gives them in different places.

How the values were obtained:
MeV [1] = assay: Cell-based anti-MeV assays of earlier work
[2] = cited from earlier work
MeV [3] = conditions: cited from earlier work; for IC50: Figure 7A source data; for EC50: experimental activity, read-out: EC50
[4] = −log10(EC50) of literature EC50

| Structure (SMILES) | IC50 (MeV [1]; Figure 7A source data) [nM] | IC50 (MeV [1]; [4]) [nM] | CC50 [2] [nM] | IC50 (MeV [3]) [nM] | EC50 (MeV [3]) [nM] |
| --- | --- | --- | --- | --- | --- |
| COCOCC1CCCCN1S(=O)(=O)c1ccc(NC(=O)c2cc(C(F)(F)F)nn2C)cc1 (centres unmarked) [1a, S(=O)(=O)(N1C(COCOC)CCCC1)c1ccc(NC(=O)c2n(C)nc(C(F)(F)F)c2)cc1] | 1500 | 1500 | > 100000 | 1500 | 1500 |
| CCOC(=O)C=CC1CCCCN1S(=O)(=O)c1ccc(NC(=O)c2cc(C(F)(F)F)nn2C)cc1 (centres unmarked) [2g, S(=O)(=O)(N1C(C=CC(=O)OCC)CCCC1)c1ccc(NC(=O)c2n(C)nc(C(F)(F)F)c2)cc1] | 6800 | 6810 | > 100000 | 6800 | 6800 |
| CCOC(=O)CCC1CCCCN1S(=O)(=O)c1ccc(NC(=O)c2cc(C(F)(F)F)nn2C)cc1 (centres unmarked) [2i, S(=O)(=O)(N1C(CCC(=O)OCC)CCCC1)c1ccc(NC(=O)c2n(C)nc(C(F)(F)F)c2)cc1] | 6700 | 6710 | > 100000 | 6690 | 6600 |
| Cn1nc(C(F)(F)F)cc1C(=O)Nc1ccc(S(=O)(=O)N2CCCC[C@H]2CCO)cc1 [2k, S(=O)(=O)(N1[C@H](CCO)CCCC1)c1ccc(NC(=O)c2n(C)nc(C(F)(F)F)c2)cc1] |  | 100 | > 100000 |  | 100 |
| Cn1nc(C(F)(F)F)cc1C(=O)Nc1ccc(S(=O)(=O)c2ccccc2)cc1 [3a, S(=O)(=O)(c1ccc(NC(=O)c2n(C)nc(C(F)(F)F)c2)cc1)c1ccccc1] | 90 | 90.2 | > 100000 | 90 | 90 |
| COc1ccccc1S(=O)(=O)c1ccc(NC(=O)c2cc(C(F)(F)F)nn2C)cc1 [3b, S(=O)(=O)(c1c(OC)cccc1)c1ccc(NC(=O)c2n(C)nc(C(F)(F)F)c2)cc1] | 3100 | 3100 | > 100000 | 3090 | 3000 |
| Cn1nc(C(F)(F)F)cc1C(=O)Nc1ccc(S(=O)(=O)c2ccccc2O)cc1 [3c, S(=O)(=O)(c1c(O)cccc1)c1ccc(NC(=O)c2n(C)nc(C(F)(F)F)c2)cc1] | 4500 | 4510 | 75000 | 4500 | 4500 |
| CC(=O)Oc1ccccc1S(=O)(=O)c1ccc(NC(=O)c2cc(C(F)(F)F)nn2C)cc1 [3d, S(=O)(=O)(c1c(OC(=O)C)cccc1)c1ccc(NC(=O)c2n(C)nc(C(F)(F)F)c2)cc1] | 4500 | 4510 | > 100000 | 4500 | 4500 |
| CCn1nc(C(F)(F)F)cc1C(=O)Nc1ccc(S(=O)(=O)N2CCCCC2C)cc1 (centres unmarked) [9a, S(=O)(=O)(N1C(C)CCCC1)c1ccc(NC(=O)c2n(CC)nc(C(F)(F)F)c2)cc1] | 55 | 55.1 | 30000 | 55 | 55 |
| Cn1cc(C(F)(F)F)cc1C(=O)Nc1ccc(S(=O)(=O)N2CCCCC2)cc1 [15a, S(=O)(=O)(N1CCCCC1)c1ccc(NC(=O)c2n(C)cc(C(F)(F)F)c2)cc1] | 14 | 14 | > 300000 | 14 | 14 |
| CC1CCCCN1S(=O)(=O)c1ccc(NC(=O)c2cc(C(F)(F)F)cn2C)cc1 (centres unmarked) [15b, S(=O)(=O)(N1C(C)CCCC1)c1ccc(NC(=O)c2n(C)cc(C(F)(F)F)c2)cc1] | 29 | 29 | > 300000 | 28.9 | 28 |
| CC1CCN(S(=O)(=O)c2ccc(NC(=O)c3cc(C(F)(F)F)cn3C)cc2)CC1 [15c, S(=O)(=O)(N1CCC(C)CC1)c1ccc(NC(=O)c2n(C)cc(C(F)(F)F)c2)cc1] | 35 | 35.1 | > 300000 | 35 | 35 |
| CC1CCCC(C)N1S(=O)(=O)c1ccc(NC(=O)c2cc(C(F)(F)F)cn2C)cc1 (centres unmarked) [15d, S(=O)(=O)(N1C(C)CCCC1C)c1ccc(NC(=O)c2n(C)cc(C(F)(F)F)c2)cc1] | 14 | 14 | > 300000 | 14 | 14 |
| CCC1CCCCN1S(=O)(=O)c1ccc(NC(=O)c2cc(C(F)(F)F)cn2C)cc1 (centres unmarked) [15e, S(=O)(=O)(N1C(CC)CCCC1)c1ccc(NC(=O)c2n(C)cc(C(F)(F)F)c2)cc1] | 87 | 87.1 | > 300000 | 86.9 | 86 |
| Cn1cc(C(F)(F)F)cc1C(=O)Nc1ccc(S(=O)(=O)N2CCCCCC2)cc1 [15f, S(=O)(=O)(N1CCCCCC1)c1ccc(NC(=O)c2n(C)cc(C(F)(F)F)c2)cc1] | 5 | 5 | > 300000 | 5 | 5 |
| Cn1cc(C(F)(F)F)cc1C(=O)Nc1ccc(S(=O)(=O)N2CCCCCCC2)cc1 [15g, S(=O)(=O)(N1CCCCCCC1)c1ccc(NC(=O)c2n(C)cc(C(F)(F)F)c2)cc1] | 45 | 45.1 | > 300000 | 45 | 45 |

| Structure (SMILES) | IC50 (MeV [1]; Figure 7A source data) [nM] | IC50 (MeV [1]; [4]) [nM] | CC50 [2] [nM] | IC50 (MeV [3]) [nM] | EC50 (MeV [3]) [nM] |
| --- | --- | --- | --- | --- | --- |
| Cn1cc(C(F)(F)F)cc1C(=O)Nc1ccc(S(=O)(=O)N2CCC[C@@H]2C(=O)OC(=O)c2ccccc2)cc1 [15h, S(=O)(=O)(N1[C@@H](C(=O)OC(=O)c2ccccc2)CCC1)c1ccc(NC(=O)c2n(C)cc(C(F)(F)F)c2)cc1] | 14000 | 14000 | > 100000 | 14000 | 14000 |
| Cn1cc(C(F)(F)F)cc1C(=O)Nc1ccc(S(=O)(=O)N2CCCC2C(=O)O)cc1 (centres unmarked) [15i, S(=O)(=O)(N1C(C(=O)O)CCC1)c1ccc(NC(=O)c2n(C)cc(C(F)(F)F)c2)cc1] | 23000 | 23000 | > 300000 | 23000 | 23000 |
| Cn1cc(C(F)(F)F)cc1C(=O)Nc1ccc(S(=O)(=O)N2CCC(C(F)(F)F)CC2)cc1 [15k, S(=O)(=O)(N1CCC(C(F)(F)F)CC1)c1ccc(NC(=O)c2n(C)cc(C(F)(F)F)c2)cc1] | 20 | 20 | 159000 | 20 | 20 |
| CN(C)S(=O)(=O)c1ccc(NC(=O)c2cc(C(F)(F)F)cn2C)cc1 [15m, S(=O)(=O)(N(C)C)c1ccc(NC(=O)c2n(C)cc(C(F)(F)F)c2)cc1] | 6300 | 6310 | > 300000 | 6300 | 6300 |
| CCN(CC)S(=O)(=O)c1ccc(NC(=O)c2cc(C(F)(F)F)cn2C)cc1 [15n, S(=O)(=O)(N(CC)CC)c1ccc(NC(=O)c2n(C)cc(C(F)(F)F)c2)cc1] | 19 | 19 | > 300000 | 18.9 | 18 |
| CC(C)N(C(C)C)S(=O)(=O)c1ccc(NC(=O)c2cc(C(F)(F)F)cn2C)cc1 [15o, S(=O)(=O)(N(C(C)C)C(C)C)c1ccc(NC(=O)c2n(C)cc(C(F)(F)F)c2)cc1] | 530 | 531 | > 300000 | 529 | 520 |
| CCCN(CCC)S(=O)(=O)c1ccc(NC(=O)c2cc(C(F)(F)F)cn2C)cc1 [15p, S(=O)(=O)(N(CCC)CCC)c1ccc(NC(=O)c2n(C)cc(C(F)(F)F)c2)cc1] | 190 | 190 | > 300000 | 190 | 190 |
| C=CCN(CC=C)S(=O)(=O)c1ccc(NC(=O)c2cc(C(F)(F)F)cn2C)cc1 [15r, S(=O)(=O)(N(CC=C)CC=C)c1ccc(NC(=O)c2n(C)cc(C(F)(F)F)c2)cc1] | 3300 | 3300 | 34000 | 3300 | 3300 |
| Cn1nc(C(F)(F)F)cc1C(=O)Nc1ccc(S(=O)(=O)N2CCCCC2CO)cc1 (centres unmarked) [28c, S(=O)(=O)(N1C(CO)CCCC1)c1ccc(NC(=O)c2n(C)nc(C(F)(F)F)c2)cc1] | 850 | 851 |  | 850 | 850 |
| Cn1nc(C(F)(F)F)cc1C(=O)Nc1ccc(S(=O)(=O)N2CCC[C@@H]2C(=O)O)cc1 [AS-105, S(=O)(=O)(N1[C@@H](C(=O)O)CCC1)c1ccc(NC(=O)c2n(C)nc(C(F)(F)F)c2)cc1] | 23000 | 23000 | > 300000 | 23000 | 23000 |
| Cn1nc(C(F)(F)F)cc1C(=O)Nc1ccc(S(=O)(=O)N2CCCCC2)cc1 [AS-136a, S(=O)(=O)(N1CCCCC1)c1ccc(NC(=O)c2n(C)nc(C(F)(F)F)c2)cc1] | 14 | 14 | > 300000 | 14 | 14 |
| O=C(Nc1ccc(S(=O)(=O)N2CCCC2)cc1)c1nccn1-c1ccccc1C(F)(F)F [MS-12, S(=O)(=O)(N1CCCC1)c1ccc(NC(=O)c2n(-c3c(C(F)(F)F)cccc3)ccn2)cc1] | 65000 | 65000 | > 300000 | 65000 | 65000 |
| Cn1nc(C(F)(F)F)cc1C(=O)Cc1ccc(S(=O)(=O)N2CCCC2)cc1 [MS-26, S(=O)(=O)(N1CCCC1)c1ccc(CC(=O)c2n(C)nc(C(F)(F)F)c2)cc1] | 15500 | 15500 | > 300000 | 15500 | 15500 |
| Cn1nc(C(F)(F)F)cc1C(O)Cc1ccc(S(=O)(=O)N2CCCC2)cc1 (centres unmarked) [MS-27, S(=O)(=O)(N1CCCC1)c1ccc(CC(O)c2n(C)nc(C(F)(F)F)c2)cc1] | 41000 | 41000 | > 300000 | 41000 | 41000 |
| Cn1nc(C(F)(F)F)cc1C(=O)Nc1ccc(S(=O)(=O)N2CCCC2)cc1 [compound 16677, S(=O)(=O)(N1CCCC1)c1ccc(NC(=O)c2n(C)nc(C(F)(F)F)c2)cc1] | 240 | 240 | > 300000 | 239 | 230 |
